# In US20240317709A1, “Lysophosphatidic Acid Receptor Antagonists for Breast Cancer Treatment” (Lakehead University, priority 2023, published 2024):
# Where two headings read alike, the source gives them in different places.
# Legend:
# [1] = molecular target: T1, LPAs (Homo sapiens, UniProt Q9UBY5); details: literature value (ref 15); read-out: LPAs IC50 in calcium release assay; cited from earlier work
# T1 sequence (Q9UBY5 1-353): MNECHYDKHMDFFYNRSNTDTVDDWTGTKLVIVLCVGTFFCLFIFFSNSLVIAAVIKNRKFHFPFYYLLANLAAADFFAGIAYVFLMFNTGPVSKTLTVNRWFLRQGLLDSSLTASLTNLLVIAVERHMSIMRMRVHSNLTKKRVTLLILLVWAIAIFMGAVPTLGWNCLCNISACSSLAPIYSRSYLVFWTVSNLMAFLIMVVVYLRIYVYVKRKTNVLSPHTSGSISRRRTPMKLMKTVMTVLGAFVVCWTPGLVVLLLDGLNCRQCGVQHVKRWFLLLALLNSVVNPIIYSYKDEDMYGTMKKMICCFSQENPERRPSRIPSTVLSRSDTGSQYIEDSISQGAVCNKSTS
# [2] = molecular target: T2, LPA1 (Homo sapiens, UniProt Q92633); assay: in vitro cAMP assay using a CHO cell line overexpressing LPA1 receptor; format: cell-based; set-up: GFP; host or cells: CHO-K1, transiently transfected
# Target sequence in this assay (Q92633 whole entry): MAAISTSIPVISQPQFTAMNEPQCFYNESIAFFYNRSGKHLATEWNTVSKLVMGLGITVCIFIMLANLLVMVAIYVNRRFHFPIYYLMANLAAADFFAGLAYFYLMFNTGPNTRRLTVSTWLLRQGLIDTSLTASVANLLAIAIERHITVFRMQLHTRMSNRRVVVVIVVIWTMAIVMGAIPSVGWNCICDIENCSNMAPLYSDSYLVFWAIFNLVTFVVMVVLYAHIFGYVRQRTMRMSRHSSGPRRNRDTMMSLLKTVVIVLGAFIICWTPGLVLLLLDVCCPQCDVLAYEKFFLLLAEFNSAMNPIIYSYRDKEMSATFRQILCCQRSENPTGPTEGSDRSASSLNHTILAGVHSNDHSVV
# Procedure: LPA1 receptor activation leads to an inhibition of cAMP production that can be quantified by measuring the luminescence. Compounds prepared as described herein were tested in an in vitro cAMP assay using a CHO cell line overexpressing LPA1 receptor.
# The plasmid encoding LPA1-GFP was purchased from OriGene Technologies (Rockville, MD, USA). CHO-K1 cells were seeded onto 96-well plates at a density of 8000 cells/well and then transiently transfected with the plasmid using X-tremeGENE 9 DNA Transfection Reagent (Roche) in antibiotic-free media. Transiently transfected cells were assayed or imaged at 48 h post-transfection.
# cAMP levels were measured using cAMP-Glo™ Assay kit (Promega) according to the manufacture's instructions. CHO-K1 cells overexpressing LPA1 were incubated with various concentrations of ⅕ log diluted test compounds, 100 nM forskolin, and 1 uM LPA in induction buffer (1× phosphate-buffered saline with 500 uM isobutyl-1-methylxanthine and 100 μM 4-(3-butoxy-4-methoxybenzyl) imidazolidone) for 30 min at room temperature. Changes in cAMP were measured using BioTek Synergy HTX plate reader.
# [3] = test system: histamine release induced by LPA; details: in vivo; literature (ref 15); cited from earlier work
# [4] = molecular target: T2, LPA1; details: literature value (ref 15); read-out: IC50 in calcium release assay (LPA1); cited from earlier work
# Target sequence in this assay (Q92633 whole entry, species assumed): as the sequence (Q92633 whole entry) above
# [5] = test system: lung fibroblast; details: in vitro; literature (ref 15); cited from earlier work
structure (smiles),measurement,setting,value
Cc1nnn(-c2ccc(-c3ccc(C4(C(=O)O)CC4)cc3)cc2)c1NC(=O)O[C@H](C)c1ccccc1 [RO-2],IC50,[1],> 30000 nM
same,% inhibition,"[2]; cAMP assay, 1 μM LPA, 100 nM forskolin, test concentration not given",111.6%
same,IC50,"[2]; concentration to reverse 50% of the inhibitory effect of 1 μM 18:1 LPA on forskolin-mediated cAMP production, CHO-K1 overexpressing LPA1",18.3 nM
same,histamine release induced by LPA,[3],ameliorated histamine release induced by LPA in vivo
same,IC50,[4],25 nM
same,inhibition of lung fibroblast contraction induced by LPA,[5],inhibited lung fibroblast proliferation and contraction induced by LPA in vitro
same,inhibition of lung fibroblast proliferation induced by LPA,[5],inhibited lung fibroblast proliferation and contraction induced by LPA in vitro
